According to ChEMBL document CHEMBL1201862, “PubChem BioAssay data set” (2004):
Each block holds one molecule with its values, some of them ahead of it. The source made the active and inactive calls.

Tests used:
[1] = biological target: Trypsin (Sus scrofa, UniProt P00761); assay: trypsin protease activity blockade – biochemical, quenched peptide fluorescence, cherry-pick, selectivity assay for Rce1 protease inhibitor project, dose response (AID 488789)
[2] = biological target: T1, CAAX prenyl protease 2 (Saccharomyces cerevisiae S288c, UniProt Q03530); type: biochemical
T1 sequence (Q03530 whole entry): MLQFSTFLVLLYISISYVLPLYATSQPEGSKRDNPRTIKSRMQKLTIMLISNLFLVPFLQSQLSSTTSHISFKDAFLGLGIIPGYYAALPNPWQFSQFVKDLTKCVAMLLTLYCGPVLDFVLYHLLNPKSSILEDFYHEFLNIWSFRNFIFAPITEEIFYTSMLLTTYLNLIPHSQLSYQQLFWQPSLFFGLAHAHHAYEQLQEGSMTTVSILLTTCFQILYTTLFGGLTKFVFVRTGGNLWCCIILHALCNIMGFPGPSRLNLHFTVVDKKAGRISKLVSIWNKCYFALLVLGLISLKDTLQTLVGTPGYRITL

[3] = biological target: T2, Neuropeptides B/W receptor type 1 (Homo sapiens, UniProt P48145); assay: Fluorescence-based dose response cell-based high throughput screening assay to identify antagonists of the G-protein coupled receptor 7 (GPR7). [Related pubchem assays: 1952 (Screening assay (GPR7 antagonists).), 1880 (Summary AID.)]; type: functional
T2 sequence (P48145 whole entry): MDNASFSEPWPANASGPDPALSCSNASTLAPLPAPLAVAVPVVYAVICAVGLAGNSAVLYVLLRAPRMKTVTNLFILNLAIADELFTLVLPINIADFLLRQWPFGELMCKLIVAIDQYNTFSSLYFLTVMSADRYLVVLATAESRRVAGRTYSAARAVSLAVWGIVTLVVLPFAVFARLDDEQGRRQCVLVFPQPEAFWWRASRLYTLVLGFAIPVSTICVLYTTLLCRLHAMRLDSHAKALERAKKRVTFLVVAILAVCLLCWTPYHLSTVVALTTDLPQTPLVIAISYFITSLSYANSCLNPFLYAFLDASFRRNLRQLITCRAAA

[4] = biological target: Melanin-concentrating hormone receptor 1 (Homo sapiens, UniProt Q99705); assay: Fluorescence-based counterscreen for antagonists of the G-protein coupled receptor 7 (GPR7): cell-based high throughput dose response assay to identify antagonists of the melanin-concentrating hormone receptor 1 (MCHR1).; type: functional
Sequence of Melanin-concentrating hormone receptor 1 (Q99705 whole entry): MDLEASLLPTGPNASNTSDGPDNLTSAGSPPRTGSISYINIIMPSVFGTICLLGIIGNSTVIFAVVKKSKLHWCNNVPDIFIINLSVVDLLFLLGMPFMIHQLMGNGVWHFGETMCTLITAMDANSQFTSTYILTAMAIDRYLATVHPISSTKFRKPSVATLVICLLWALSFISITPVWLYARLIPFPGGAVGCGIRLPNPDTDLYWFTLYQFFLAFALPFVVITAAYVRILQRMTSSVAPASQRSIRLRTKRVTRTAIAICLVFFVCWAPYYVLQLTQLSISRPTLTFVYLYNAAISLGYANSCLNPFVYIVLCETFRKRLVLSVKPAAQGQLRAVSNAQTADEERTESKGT

[5] = biological target: G-protein coupled receptor 55 (Homo sapiens, UniProt Q9Y2T6); assay: selective activators of receptor GPR55 – imaging, U2OS cells, beta-arrestin-GFP redistribution, primary screen (AID 1961); type: functional
[6] = biological target: T3, RNA-binding protein pos-1 (Caenorhabditis elegans, UniProt G5EF15); assay: disruptors of C. elegans POS-1 RNA interaction – biochemical, fluorescence polarization, dose response (AID 1964);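 also: purified POS-1 fused to maltose binding protein made in E. coli; potency of compounds blocking POS-1 binding to fluorescent RNA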
T3 sequence (G5EF15 whole entry): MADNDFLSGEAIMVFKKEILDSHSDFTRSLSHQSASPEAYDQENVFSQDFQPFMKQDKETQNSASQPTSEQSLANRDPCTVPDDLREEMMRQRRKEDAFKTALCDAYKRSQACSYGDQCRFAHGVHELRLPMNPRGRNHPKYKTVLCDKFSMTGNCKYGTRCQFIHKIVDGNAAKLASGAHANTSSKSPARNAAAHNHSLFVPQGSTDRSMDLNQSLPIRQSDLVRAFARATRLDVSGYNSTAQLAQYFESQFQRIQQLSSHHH

[7] = biological target: T4, SUMO-activating enzyme (Homo sapiens, UniProt Q9UBT2); assay: blockers of UBC9-mediated SUMO conjugation – biochemical, AlphaScreen, SUMOylation inhibitor project, confirmation (AID 2018); type: functional
T4 sequence (Q9UBE0 whole entry): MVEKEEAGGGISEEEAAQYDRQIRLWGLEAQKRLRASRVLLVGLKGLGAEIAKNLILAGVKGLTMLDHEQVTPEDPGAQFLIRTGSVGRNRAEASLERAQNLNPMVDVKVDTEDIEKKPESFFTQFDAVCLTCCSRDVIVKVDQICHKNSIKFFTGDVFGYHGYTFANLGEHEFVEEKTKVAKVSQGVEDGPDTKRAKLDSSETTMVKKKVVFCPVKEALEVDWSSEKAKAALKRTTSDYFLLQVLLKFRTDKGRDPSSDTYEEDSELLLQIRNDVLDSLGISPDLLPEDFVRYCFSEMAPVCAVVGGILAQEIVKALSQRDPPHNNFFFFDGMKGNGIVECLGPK
T4 sequence (Q9UBT2 whole entry): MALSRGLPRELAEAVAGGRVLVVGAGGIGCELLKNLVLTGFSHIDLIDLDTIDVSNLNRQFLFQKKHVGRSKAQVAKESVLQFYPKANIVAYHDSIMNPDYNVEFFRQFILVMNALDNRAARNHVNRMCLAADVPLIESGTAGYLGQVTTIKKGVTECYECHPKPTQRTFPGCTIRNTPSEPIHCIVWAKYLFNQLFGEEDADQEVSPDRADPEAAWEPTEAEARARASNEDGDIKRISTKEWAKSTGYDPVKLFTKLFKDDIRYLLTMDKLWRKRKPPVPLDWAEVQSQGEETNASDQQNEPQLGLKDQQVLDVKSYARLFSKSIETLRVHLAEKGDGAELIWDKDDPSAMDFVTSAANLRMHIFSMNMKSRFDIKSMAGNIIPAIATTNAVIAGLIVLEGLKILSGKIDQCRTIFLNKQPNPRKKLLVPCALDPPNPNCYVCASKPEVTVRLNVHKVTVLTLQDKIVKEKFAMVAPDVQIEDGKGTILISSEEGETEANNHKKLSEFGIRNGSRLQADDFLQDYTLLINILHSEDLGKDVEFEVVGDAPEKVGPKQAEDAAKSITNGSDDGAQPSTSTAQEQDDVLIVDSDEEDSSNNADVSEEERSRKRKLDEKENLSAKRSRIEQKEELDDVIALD

[8] = biological target: T5, Zinc finger protein mex-5 (Caenorhabditis elegans, UniProt Q9XUB2); assay: potency of MEX-5 RNA-binding blockers – biochemical, C. elegans, fluorescence polarization, dose response (AID 1960)
T5 sequence (Q9XUB2 whole entry): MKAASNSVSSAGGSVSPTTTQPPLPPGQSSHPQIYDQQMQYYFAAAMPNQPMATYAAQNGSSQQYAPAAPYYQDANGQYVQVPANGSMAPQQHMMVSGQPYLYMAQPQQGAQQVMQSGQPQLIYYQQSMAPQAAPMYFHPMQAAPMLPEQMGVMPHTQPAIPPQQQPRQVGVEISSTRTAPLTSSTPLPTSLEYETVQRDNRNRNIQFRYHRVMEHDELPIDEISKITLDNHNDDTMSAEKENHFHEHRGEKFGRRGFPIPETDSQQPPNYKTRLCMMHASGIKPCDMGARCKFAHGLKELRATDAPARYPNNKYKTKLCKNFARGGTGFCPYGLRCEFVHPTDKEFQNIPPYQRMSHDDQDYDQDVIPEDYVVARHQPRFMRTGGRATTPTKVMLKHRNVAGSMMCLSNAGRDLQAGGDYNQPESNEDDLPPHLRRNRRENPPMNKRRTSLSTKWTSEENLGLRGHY

[9] = biological target: T4, SUMO-activating enzyme; assay: blockers of SAE1/SAE2–UBC9 SUMO transfer – biochemical, HTRF, uHTS, primary screen (AID 2006); type: protein-complex assay
[10] = biological target: T6, Cysteine protease ATG4B (Homo sapiens, UniProt Q9Y4P1); type: functional;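 also: Fluorescence-based dose-response confirmation assay measuring inhibition of ATG4B activity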
T6 sequence (Q9Y4P1 whole entry): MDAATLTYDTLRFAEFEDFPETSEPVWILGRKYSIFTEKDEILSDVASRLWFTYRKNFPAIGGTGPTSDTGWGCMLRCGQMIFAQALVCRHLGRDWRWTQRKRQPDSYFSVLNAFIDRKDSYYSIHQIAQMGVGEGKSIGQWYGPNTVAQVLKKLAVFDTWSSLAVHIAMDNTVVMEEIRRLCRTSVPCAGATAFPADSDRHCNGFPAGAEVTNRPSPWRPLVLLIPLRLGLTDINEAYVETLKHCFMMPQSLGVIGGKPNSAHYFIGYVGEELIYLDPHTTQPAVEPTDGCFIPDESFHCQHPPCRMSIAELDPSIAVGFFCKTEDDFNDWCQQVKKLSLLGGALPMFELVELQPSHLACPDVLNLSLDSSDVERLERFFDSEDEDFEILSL

[11] = biological target: Phospholipase A2 (Homo sapiens, UniProt P04054); type: functional;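 also: confirmatory dose-response counterscreen on phospholipase A2, testing hits that came from an ultra-high-throughput screen for ATG4B inhibitors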
Sequence of Phospholipase A2 (P04054 whole entry, the tested form may be a part): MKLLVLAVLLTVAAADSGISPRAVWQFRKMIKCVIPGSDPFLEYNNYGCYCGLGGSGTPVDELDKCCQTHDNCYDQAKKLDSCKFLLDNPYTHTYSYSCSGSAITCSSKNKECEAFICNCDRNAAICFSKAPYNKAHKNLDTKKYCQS

[12] = biological target: T7, Carboxy-terminal domain RNA polymerase II polypeptide A small phosphatase 1 (Homo sapiens, UniProt Q9GZU7); assay: CTDSP1 inhibitors, concentration-response, biochemical, absorbance readout, ultra-high-throughput screen actives (AID 540297); type: functional
T7 sequence (Q9GZU7 whole entry): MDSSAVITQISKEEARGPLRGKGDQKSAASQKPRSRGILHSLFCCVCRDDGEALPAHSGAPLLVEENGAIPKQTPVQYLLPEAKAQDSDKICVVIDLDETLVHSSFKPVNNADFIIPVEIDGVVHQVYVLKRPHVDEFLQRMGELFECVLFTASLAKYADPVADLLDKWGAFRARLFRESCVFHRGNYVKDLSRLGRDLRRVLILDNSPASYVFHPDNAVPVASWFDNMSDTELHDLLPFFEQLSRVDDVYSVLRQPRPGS

[13] = biological target: Large T antigen (Simian virus 40, UniProt P03070); type: functional, Betapolyomavirus macacae;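 also: Confirmatory-stage PubChem screen for compounds that inhibit SV40 T antigen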
[14] = biological target: Induced myeloid leukemia cell differentiation protein Mcl-1 (Homo sapiens, UniProt Q07820); type: functional
[15] = biological target: ORF 73 (Human herpesvirus 8, UniProt O40947); assay: KSHV LANA DNA-binding disruption – biochemical, fluorescence polarization, cherry-picked samples, dose response (AID 504725); set-up: species or system Human gammaherpesvirus 8;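 also: fluorescence polarization of a labeled DNA duplex reporting LANA DNA binding; potency is for inhibitors that block LANA binding to the DNA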
[16] = biological target: DNA (cytosine-5)-methyltransferase 1 (Homo sapiens, UniProt P26358); assay: inhibition of DNA methylation by DNMT1 – biochemical, fluorescent molecular beacon, confirmation (AID 602386); type: functional
Sequence of DNA (cytosine-5)-methyltransferase 1 (P26358 whole entry): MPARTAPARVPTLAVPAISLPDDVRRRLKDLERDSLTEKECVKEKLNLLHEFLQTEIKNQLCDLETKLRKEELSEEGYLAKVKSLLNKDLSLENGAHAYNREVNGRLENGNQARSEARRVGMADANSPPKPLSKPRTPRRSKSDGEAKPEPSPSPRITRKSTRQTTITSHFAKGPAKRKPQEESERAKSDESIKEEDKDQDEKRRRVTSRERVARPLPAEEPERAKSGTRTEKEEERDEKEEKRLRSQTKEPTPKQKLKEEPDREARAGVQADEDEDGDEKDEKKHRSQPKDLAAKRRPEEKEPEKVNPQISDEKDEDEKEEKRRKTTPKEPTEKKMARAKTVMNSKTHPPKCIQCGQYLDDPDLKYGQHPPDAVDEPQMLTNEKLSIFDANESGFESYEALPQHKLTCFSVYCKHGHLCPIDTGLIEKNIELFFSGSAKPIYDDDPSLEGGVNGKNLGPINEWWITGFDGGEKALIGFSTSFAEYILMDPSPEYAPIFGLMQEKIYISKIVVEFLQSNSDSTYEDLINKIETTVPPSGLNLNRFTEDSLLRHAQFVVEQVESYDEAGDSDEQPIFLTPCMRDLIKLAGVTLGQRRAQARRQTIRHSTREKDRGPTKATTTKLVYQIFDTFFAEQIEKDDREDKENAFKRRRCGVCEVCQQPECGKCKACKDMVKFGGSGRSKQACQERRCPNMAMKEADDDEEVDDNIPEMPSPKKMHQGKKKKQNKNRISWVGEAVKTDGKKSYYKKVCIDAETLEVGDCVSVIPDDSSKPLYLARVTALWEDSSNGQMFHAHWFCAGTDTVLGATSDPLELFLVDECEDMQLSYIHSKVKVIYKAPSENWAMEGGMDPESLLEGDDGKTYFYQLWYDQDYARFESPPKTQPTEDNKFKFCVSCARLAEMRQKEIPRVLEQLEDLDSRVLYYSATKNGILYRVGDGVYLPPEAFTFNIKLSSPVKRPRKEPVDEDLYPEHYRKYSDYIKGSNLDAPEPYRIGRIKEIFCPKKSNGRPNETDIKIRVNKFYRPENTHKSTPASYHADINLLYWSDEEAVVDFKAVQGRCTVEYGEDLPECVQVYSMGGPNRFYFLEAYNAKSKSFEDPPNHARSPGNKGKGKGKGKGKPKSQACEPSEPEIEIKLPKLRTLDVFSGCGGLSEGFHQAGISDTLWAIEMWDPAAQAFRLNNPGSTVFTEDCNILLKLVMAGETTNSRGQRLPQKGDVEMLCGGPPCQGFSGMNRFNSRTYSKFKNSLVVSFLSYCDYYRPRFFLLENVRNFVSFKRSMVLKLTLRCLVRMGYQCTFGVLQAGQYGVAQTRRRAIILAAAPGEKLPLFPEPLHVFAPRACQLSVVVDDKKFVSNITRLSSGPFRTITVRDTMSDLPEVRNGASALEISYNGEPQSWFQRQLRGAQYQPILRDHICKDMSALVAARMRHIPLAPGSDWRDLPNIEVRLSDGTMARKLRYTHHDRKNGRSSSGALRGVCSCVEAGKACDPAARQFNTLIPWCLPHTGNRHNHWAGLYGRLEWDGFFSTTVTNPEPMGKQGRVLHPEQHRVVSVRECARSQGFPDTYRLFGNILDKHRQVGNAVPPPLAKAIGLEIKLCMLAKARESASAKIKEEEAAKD

[17] = biological target: T8, Caspase-6 (Homo sapiens, UniProt P55212); assay: inhibition of CASP6 peptide cleavage – biochemical, VEID-R110 fluorescence, cherry-pick, dose response (AID 720632)
T8 sequence (P55212 whole entry): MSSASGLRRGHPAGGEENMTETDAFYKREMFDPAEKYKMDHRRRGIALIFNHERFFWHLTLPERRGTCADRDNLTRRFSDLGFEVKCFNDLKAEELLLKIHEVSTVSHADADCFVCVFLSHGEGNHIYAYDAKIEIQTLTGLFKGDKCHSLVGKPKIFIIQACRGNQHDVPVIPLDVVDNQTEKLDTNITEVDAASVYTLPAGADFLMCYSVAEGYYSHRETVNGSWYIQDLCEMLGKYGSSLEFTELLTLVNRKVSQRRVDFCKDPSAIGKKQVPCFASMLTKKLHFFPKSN

[18] = biological target: T9, Tyrosine-protein phosphatase non-receptor type 7 (Homo sapiens, UniProt P35236); assay: redox-active compounds inhibiting HePTP phosphatase – biochemical, fluorescence, mechanism study (AID 2068); type: functional
T9 sequence (P35236 whole entry): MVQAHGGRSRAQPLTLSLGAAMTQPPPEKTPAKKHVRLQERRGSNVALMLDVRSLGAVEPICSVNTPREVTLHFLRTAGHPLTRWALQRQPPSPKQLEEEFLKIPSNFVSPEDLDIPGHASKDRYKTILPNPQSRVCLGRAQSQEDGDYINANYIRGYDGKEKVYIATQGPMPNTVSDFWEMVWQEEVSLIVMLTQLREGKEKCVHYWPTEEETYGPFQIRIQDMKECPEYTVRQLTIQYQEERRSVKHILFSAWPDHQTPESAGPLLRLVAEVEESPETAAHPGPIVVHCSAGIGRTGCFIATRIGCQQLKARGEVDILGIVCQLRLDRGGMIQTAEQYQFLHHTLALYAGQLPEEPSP

[19] = biological target: T10, Dual specificity protein phosphatase 6 (Rattus norvegicus, UniProt Q64346); type: functional;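 also: confirmatory in vitro dose-response testing of MKP-3 inhibition; recombinant His-tagged MKP-3 made in E. coli BL21 with OMFP substrate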
T10 sequence (Q64346 whole entry): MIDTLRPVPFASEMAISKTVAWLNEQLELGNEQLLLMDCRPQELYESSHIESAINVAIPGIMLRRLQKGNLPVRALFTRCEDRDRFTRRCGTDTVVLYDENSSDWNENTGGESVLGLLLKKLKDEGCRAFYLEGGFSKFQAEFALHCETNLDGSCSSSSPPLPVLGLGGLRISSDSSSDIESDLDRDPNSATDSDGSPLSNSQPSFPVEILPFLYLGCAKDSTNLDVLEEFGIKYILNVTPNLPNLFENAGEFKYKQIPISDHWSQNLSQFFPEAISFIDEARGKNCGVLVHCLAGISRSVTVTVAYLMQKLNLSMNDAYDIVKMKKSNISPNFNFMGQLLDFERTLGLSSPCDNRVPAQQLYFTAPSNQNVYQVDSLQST

[20] = biological target: Mu-type opioid receptor (Homo sapiens, UniProt P35372); assay: SAR Analysis of Antagonists of the MOR Receptor using an Image-Based Assay - Set 3. [Related pubchem assays (depositor defined):AID1777, AID1785, AID1786, AID1966, AID2133, AID2136, AID2284, AID2285, AID2420]; type: functional
Sequence of Mu-type opioid receptor (P35372 whole entry): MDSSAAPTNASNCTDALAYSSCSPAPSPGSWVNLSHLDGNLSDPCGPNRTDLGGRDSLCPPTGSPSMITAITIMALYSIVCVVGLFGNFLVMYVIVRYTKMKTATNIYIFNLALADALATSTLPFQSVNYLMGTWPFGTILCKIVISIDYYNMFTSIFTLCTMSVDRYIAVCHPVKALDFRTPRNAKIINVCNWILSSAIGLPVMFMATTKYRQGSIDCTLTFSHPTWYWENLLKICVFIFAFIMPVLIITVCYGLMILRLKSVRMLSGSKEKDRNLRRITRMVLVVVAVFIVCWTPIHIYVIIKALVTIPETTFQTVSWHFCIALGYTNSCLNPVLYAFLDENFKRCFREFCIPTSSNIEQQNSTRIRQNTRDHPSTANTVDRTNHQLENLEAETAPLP

[21] = biological target: T11, Kappa-type opioid receptor (Homo sapiens, UniProt P41145); assay: SAR analysis of small molecule antagonists of the kappa opioid receptor via a luminescent beta-arrestin assay - Set 4. [Related pubchem assays (depositor defined):AID1777, AID1778, AID1785, AID1786, AID1966, AID2133, AID2136, AID2285]; type: functional
T11 sequence (P41145 whole entry): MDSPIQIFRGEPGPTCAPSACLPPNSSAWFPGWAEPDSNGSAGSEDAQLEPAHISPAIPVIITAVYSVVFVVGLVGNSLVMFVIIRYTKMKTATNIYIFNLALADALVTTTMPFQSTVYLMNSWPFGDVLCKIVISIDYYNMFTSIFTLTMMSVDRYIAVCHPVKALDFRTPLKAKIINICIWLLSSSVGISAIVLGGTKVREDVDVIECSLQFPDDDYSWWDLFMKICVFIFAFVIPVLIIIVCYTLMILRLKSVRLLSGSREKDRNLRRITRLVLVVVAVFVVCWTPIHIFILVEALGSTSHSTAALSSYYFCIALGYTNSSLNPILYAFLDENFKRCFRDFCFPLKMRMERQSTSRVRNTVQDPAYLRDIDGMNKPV

[22] = biological target: Delta-type opioid receptor (Homo sapiens, UniProt P41143); assay: SAR Analysis of Antagonists of the DOR Receptor using an Image-Based Assay - Set 3. [Related pubchem assays (depositor defined):AID1777, AID1785]; type: functional;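 also: U2OS cells expressing DOR1 and beta-arrestin GFP stimulated with 100 nM SNC80; imaging of GFP-tagged beta-arrestin moving into spots after receptor activation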
Sequence of Delta-type opioid receptor (P41143 whole entry): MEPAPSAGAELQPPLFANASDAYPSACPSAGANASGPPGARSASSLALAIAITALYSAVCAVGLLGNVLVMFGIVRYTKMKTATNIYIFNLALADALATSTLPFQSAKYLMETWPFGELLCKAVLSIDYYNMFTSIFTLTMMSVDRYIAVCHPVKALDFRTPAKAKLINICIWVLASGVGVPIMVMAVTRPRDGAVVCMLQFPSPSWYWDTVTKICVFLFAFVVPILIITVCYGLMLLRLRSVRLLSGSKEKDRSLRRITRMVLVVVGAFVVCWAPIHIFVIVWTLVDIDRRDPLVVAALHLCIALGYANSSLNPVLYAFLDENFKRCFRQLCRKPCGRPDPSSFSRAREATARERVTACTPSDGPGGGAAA

[23] = biological target: T11, Kappa-type opioid receptor; assay: SAR analysis of Antagonists of the Kappa Opioid Receptor (KOR) using an Image-Based Assay - Set 4. [Related pubchem assays (depositor defined):AID1777, AID1785]; type: functional
[24] = biological target: Hexokinase (Trypanosoma brucei, UniProt Q38C41); assay: Confirmation assay for inhibitors of Trypanosoma brucei hexokinase 1-Analogue-first series. [Related pubchem assays (depositor defined):AID1430, AID1632, AID2516, AID2560, AID2579, AID2600, AID449725, AID492951]; type: functional
Sequence of Hexokinase (Q38C41 whole entry): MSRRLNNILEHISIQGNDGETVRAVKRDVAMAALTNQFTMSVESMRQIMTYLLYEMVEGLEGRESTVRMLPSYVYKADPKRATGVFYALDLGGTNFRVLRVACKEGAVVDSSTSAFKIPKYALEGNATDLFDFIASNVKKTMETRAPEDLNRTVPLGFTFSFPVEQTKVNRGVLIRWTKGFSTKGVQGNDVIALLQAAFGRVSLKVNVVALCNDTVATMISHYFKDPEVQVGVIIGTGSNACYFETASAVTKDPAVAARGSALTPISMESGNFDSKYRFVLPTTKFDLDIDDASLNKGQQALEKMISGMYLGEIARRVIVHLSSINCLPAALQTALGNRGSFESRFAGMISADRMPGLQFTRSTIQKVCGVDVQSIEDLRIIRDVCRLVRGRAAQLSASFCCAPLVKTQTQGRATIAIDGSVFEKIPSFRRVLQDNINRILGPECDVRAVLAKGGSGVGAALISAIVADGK

Sequence of Trypsin (P00761 whole entry): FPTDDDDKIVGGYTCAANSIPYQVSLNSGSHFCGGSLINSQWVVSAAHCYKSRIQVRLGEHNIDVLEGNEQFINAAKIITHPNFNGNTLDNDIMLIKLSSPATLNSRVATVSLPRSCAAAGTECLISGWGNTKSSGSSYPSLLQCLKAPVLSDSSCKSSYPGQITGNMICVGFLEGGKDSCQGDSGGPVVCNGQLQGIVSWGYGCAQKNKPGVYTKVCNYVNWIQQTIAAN

AC50 [1]: 8.75 µM (active)
AC50 [2]: 10.7 µM (active)
Structure (SMILES): O=C(NCCc1cccnc1)c1cc(COc2ccc(F)cc2Cl)on1

IC50 [3]: 23.5 µM (not active)
IC50 [4]: 16.9 µM (not active)
EC50 [5]: 21 µM (inactive)
Structure (SMILES): Cc1ccc(Cl)cc1N1CCN(C(=O)c2ccc3c(c2)CCN3S(C)(=O)=O)CC1

EC50 [6]: 2.41 µM (active)
IC50 [7]: 2.85 µM (active)
EC50 [8]: 1.68 µM (active)
IC50 [9]: 9.45 µM (active)
IC50 [10]: 2.05 µM (active)
IC50 [11]: 1.77 µM (active)
IC50 [12]: 1.44 µM (active)
Structure (SMILES): Cc1ccccc1NC(=O)CN1C(=O)S/C(=C\c2ccc(-c3cc(C(=O)O)ccc3C)o2)C1=O

IC50 [13]: 23.1 µM (active)
IC50 [14]: 4.87 µM (active)
AC50 [15]: 22.1 µM (active)
IC50 [16]: 6.74 µM (active)
AC50 [17]: 11.1 µM (active)
Structure (SMILES): O=C(O)Cc1c[nH]c2cccc(O)c12

IC50 [18]: 0.766 µM (active)
IC50 [19]: > 100 µM (inactive)
Structure (SMILES): CCC(CC)NC(=S)c1ccc(O)c(OC)c1

IC50 [20]: > 32 µM (inactive)
IC50 [21]: 1.6 µM (active)
IC50 [22]: > 32 µM (inactive)
IC50 [23]: 2.01 µM (active)
Structure (SMILES): CCC(C)c1ccc(S(=O)(=O)NCc2ccc(C(=O)NCCN(Cc3ccccc3)C(C)C)cc2)cc1 (stereo not drawn)

The next lines start with the molecule.

Structure (SMILES): Cc1cc(C)n2cc(CSCC(=O)O)nc2n1
AC50 [1]: 12 µM (active)
AC50 [2]: 12.1 µM (active)

Structure (SMILES): COc1cc(C(=S)NC(C)(C)C)ccc1O
IC50 [18]: 13.1 µM (active)
IC50 [19]: > 100 µM (inactive)

Structure (SMILES): COc1ccc(N2CCN(CCNC(=O)Cn3c(=O)c4cccn4c4c(C)ccnc43)CC2)cc1
IC50 [20]: > 32 µM (inactive)
IC50 [21]: 14.1 µM (inactive)
IC50 [22]: > 32 µM (inactive)
IC50 [23]: > 32 µM (inactive)

Structure (SMILES): COc1cccc(CC(=O)Nc2cc(Cl)ccc2C(=O)O)c1
IC50 [24]: > 25 µM (inactive)

Structure (SMILES): O=C(Cn1sc2ccccc2c1=O)Nc1ccccc1C(F)(F)F
IC50 [24]: > 25 µM (inactive)
